This is an account of results in ChEMBL document CHEMBL4808247 (Bioorg Med Chem, 2021).

The structures appear in SMILES notation. pKi: −log10 of the molar value. In brackets after ≈: the same amount, converted by molar mass. A value given as a limit tells only on which side of the number the result lay.

Assay [1] has as its system Enterobacter cloacae. Put plainly: Antibacterial activity against Enterobacter cloacae SR36276 producing class C beta-lactamase, AmpC assessed as reduction in microbial growth incubated for 16 to 20 hrs by broth microdilution method. It counts as functional. To be noted: time 16-20 hrs.
Assay [2] concerns Klebsiella pneumoniae. As to the kind of experiment: Antibacterial activity against Klebsiella pneumoniae PLE producing class D beta-lactamase, OXA-48 assessed as reduction in microbial growth incubated for 16 to 20 hrs by broth microdilution method. It counts as functional. Particulars: time 16-20 hrs.
Assay [3] relates to Enterobacter cloacae. Put plainly: Antibacterial activity against Enterobacter cloacae IR32 producing class B beta-lactamase, NDM1 assessed as reduction in microbial growth incubated for 16 to 20 hrs by broth microdilution method. Particulars: time 16-20 hrs. It counts as functional.
The test system of assay [4] is Escherichia coli. As to the kind of experiment: Antibacterial activity against Escherichia coli NIHJ JC-2 assessed as reduction in microbial growth incubated for 16 to 20 hrs by broth microdilution method. To be noted: time 16-20 hrs. It counts as functional.
The subject of assay [5] is Escherichia coli. Put plainly: Antibacterial activity against Escherichia coli SR34100 producing class A beta-lactamase, CTX-M-15 assessed as reduction in microbial growth incubated for 16 to 20 hrs by broth microdilution method. It counts as functional. Particulars: time 16-20 hrs.
Assay [6] relates to Klebsiella pneumoniae. Put plainly: Antibacterial activity against Klebsiella pneumoniae JMI:211 producing class A beta-lactamase, KPC-2 assessed as reduction in microbial growth incubated for 16 to 20 hrs by broth microdilution method. To be noted: time 16-20 hrs. It is filed as functional.
Assay [7] has as its system Klebsiella pneumoniae. Put plainly: Antibacterial activity against Klebsiella pneumoniae ATCC13883 assessed as reduction in microbial growth incubated for 16 to 20 hrs by broth microdilution method. It counts as functional. To be noted: time 16-20 hrs.
The nature of assay [8]: Inhibition of CMY-2 in Escherichia coil BL21 assessed as inhibition of nitrocefin hydrolysis measured every 3 mins for 15 mins by UV spectrophotometer analysis. The arrangement: species or system Escherichia coli BL21.
For assay [9], the system named is Enterobacterales. Put plainly: Antimicrobial activity against Enterobacterales producing NDM assessed as reduction in microbial growth measured after 16 to 20 hrs in presence of avibactam by broth microdilution method. It is filed as functional. To be noted: time 16-20 hrs.
Assay [10] relates to Escherichia coli. Put plainly: Antibacterial activity against Escherichia coli NIHJ JC-2 strain assessed as reduction in microbial growth incubated for 16 to 20 hrs in presence of avibactam by broth microdilution method. It counts as functional. Particulars: time 16-20 hrs.
Assay [11] concerns Enterobacterales. Put plainly: Antimicrobial activity against Enterobacterales producing VIM assessed as reduction in microbial growth measured after 16 to 20 hrs in presence of avibactam by broth microdilution method. It counts as functional. Particulars: time 16-20 hrs.
Assay [12] has as its system Enterobacterales. Put plainly: Antimicrobial activity against Enterobacterales producing OXA-48 assessed as reduction in microbial growth measured after 16 to 20 hrs in presence of avibactam by broth microdilution method. It is filed as functional. Particulars: time 16-20 hrs.
Assay [13] has as its system Enterobacterales. Put plainly: Antimicrobial activity against Enterobacterales producing KPC assessed as reduction in microbial growth measured after 16 to 20 hrs in presence of avibactam by broth microdilution method. Particulars: time 16-20 hrs. It counts as functional.
For assay [14], the system named is Escherichia coli. Put plainly: Antibacterial activity against Escherichia coli BL21(DE3) transfected with pET9a vector harboring class B beta lactamase, NDM-1 incubated for 16 to 20 hrs by broth microdilution method. It counts as functional. To be noted: time 16-20 hrs.
The test system of assay [15] is Escherichia coli. Put plainly: Antibacterial activity against Escherichia coli BL21(DE3) transfected with pET9a empty vector incubated for 16 to 20 hrs by broth microdilution method. It counts as functional. To be noted: time 16-20 hrs.
Assay [16] can be described thus: Ratio of MIC for antibacterial activity against Escherichia coli BL21(DE3) transfected with pET9a vector harboring class B beta lactamase NDM-1 to MIC for antibacterial activity against Escherichia coli BL21(DE3). It counts as functional.
The test system of assay [17] is Escherichia coli. As to the kind of experiment: Antibacterial activity against Escherichia coli BL21(DE3) transfected with pET9a vector harboring class D beta lactamase, OXA-48 incubated for 16 to 20 hrs by broth microdilution method. It is filed as functional. To be noted: time 16-20 hrs.
For assay [18], the system named is Escherichia coli. As to the kind of experiment: Antibacterial activity against Escherichia coli BL21(DE3) transfected with pET9a vector harboring class A beta lactamase, CTX-M-15 incubated for 16 to 20 hrs by broth microdilution method. Particulars: time 16-20 hrs. It is filed as functional.
Assay [19] deals with Escherichia coli. Put plainly: Antibacterial activity against Escherichia coli BL21(DE3) transfected with pET9a vector harboring class C beta lactamase, AmpC incubated for 16 to 20 hrs by broth microdilution method. It counts as functional. Particulars: time 16-20 hrs.
Assay [20] can be described thus: Ratio of MIC for antibacterial activity against Escherichia coli BL21(DE3) transfected with pET9a vector harboring class C beta lactamase AmpC to MIC for antibacterial activity against Escherichia coli BL21(DE3). It is filed as functional.

Turning to `Nc1nc(/C(=N/OCC(=O)O)C(=O)N[C@@H]2C(=O)N3[C@@H]2SC[C@@H]2CC(=O)O[C@@]23C(=O)O)ns1`, the MIC with Enterobacter cloacae [1] was 4 µg/mL; in the assay on Klebsiella pneumoniae [2] it was 1 µg/mL; with Enterobacter cloacae [3] it was 0.5 µg/mL; in the assay with Escherichia coli [4] it was 0.125 µg/mL; with Escherichia coli [5] it was 0.25 µg/mL; in the assay on Klebsiella pneumoniae [6], 0.125 µg/mL.

With `Nc1nc(/C(=N/OCC(=O)O)C(=O)N[C@@H]2C(=O)N3[C@@H]2SC[C@@H]2CC(=O)O[C@@]23C(=O)O)cs1` (stereo in doubt), the minimal inhibitory concentration (MIC) is 8 µg/mL in the assay on Enterobacter cloacae [1]; 1 µg/mL in the assay with Klebsiella pneumoniae [2]; 0.125 µg/mL with Klebsiella pneumoniae [7]; 0.125 µg/mL in the assay on Enterobacter cloacae [3]; 0.063 µg/mL in the assay on Escherichia coli [4]; 0.25 µg/mL with Escherichia coli [5]. The MIC with Klebsiella pneumoniae [6] turned out to be 0.125 µg/mL. In addition, in assay [8], the pKi was 6.40.

Regarding `C[C@@H](O/N=C(\C(=O)N[C@@H]1C(=O)N2[C@@H]1[S@@+]([O-])C[C@@H]1CC(=O)O[C@@]12C(=O)O)c1csc(N)n1)C(=O)O` (stereo in doubt), the minimal inhibitory concentration (MIC) was determined as 0.25 µg/mL with Enterobacter cloacae [1]; 0.5 µg/mL in the assay with Klebsiella pneumoniae [2]; 0.125 µg/mL in the assay on Enterobacter cloacae [3]; 0.125 µg/mL with Escherichia coli [4]; 0.5 µg/mL in the assay on Escherichia coli [5]; 0.25 µg/mL in the assay on Klebsiella pneumoniae [6].

Regarding `C[C@H](O/N=C(\C(=O)N[C@@H]1C(=O)N2[C@@H]1[S@@+]([O-])C[C@@H]1CC(=O)O[C@@]12C(=O)O)c1csc(N)n1)C(=O)O` (stereo in doubt), the MIC is 0.25 µg/mL in the assay on Enterobacter cloacae [1]; 1 µg/mL with Klebsiella pneumoniae [2]; 0.5 µg/mL in the assay with Enterobacter cloacae [3]; 0.25 µg/mL in the assay with Escherichia coli [4]; 1 µg/mL in the assay with Escherichia coli [5]; 0.5 µg/mL with Klebsiella pneumoniae [6].

As for `C[C@@H](O/N=C(\C(=O)N[C@@H]1C(=O)N2[C@@H]1SC[C@@H]1CC(=O)O[C@@]12C(=O)O)c1csc(N)n1)C(=O)O` (stereo in doubt), the MIC in the assay on Enterobacter cloacae [1] came to 16 µg/mL; with Klebsiella pneumoniae [2], 1 µg/mL; with Enterobacter cloacae [3] it was 0.25 µg/mL; with Escherichia coli [4], 0.125 µg/mL; in the assay on Escherichia coli [5], 0.5 µg/mL; with Klebsiella pneumoniae [6], 0.5 µg/mL.

Take `CCO/N=C(\C(=O)N[C@@H]1C(=O)N2[C@@H]1[S@@+]([O-])C[C@@H]1CC(=O)O[C@@]12C(=O)O)c1csc(N)n1` (stereo in doubt): the MIC was 1 µg/mL in the assay on Enterobacter cloacae [1]; 4 µg/mL with Klebsiella pneumoniae [2]; 0.5 µg/mL in the assay on Enterobacter cloacae [3]; 0.25 µg/mL with Escherichia coli [4]; 0.5 µg/mL in the assay with Escherichia coli [5]; 0.5 µg/mL in the assay on Klebsiella pneumoniae [6].

With `C[C@H]1[C@H](NC(=O)/C(=N\OC(C)(C)C(=O)O)c2csc(N)n2)C(=O)N1S(=O)(=O)O` (stereo in doubt) [AZTREONAM], the MIC50 in the assay with Enterobacterales [9] worked out at 0.25 µg/mL; with Enterobacterales [11] it was 0.25 µg/mL; in the assay on Enterobacterales [12], 0.063 µg/mL; in the assay on Enterobacterales [13], 0.5 µg/mL. Also, the MIC90 in the assay on Enterobacterales [9] was determined as 1 µg/mL; in the assay on Enterobacterales [11] it was 2 µg/mL; in the assay on Enterobacterales [12], 0.25 µg/mL; in the assay on Enterobacterales [13], 1 µg/mL. Also, the MIC in the assay on Escherichia coli [10] turned out to be 0.125 µg/mL.

For `Nc1nc(/C(=N/OCC(=O)O)C(=O)N[C@@H]2C(=O)N3[C@@H]2[S@@+]([O-])C[C@@H]2CC(=O)O[C@@]23C(=O)O)ns1`, the MIC with Enterobacter cloacae [1] turned out to be 1 µg/mL; in the assay with Klebsiella pneumoniae [2], 4 µg/mL; with Enterobacter cloacae [3] it was 2 µg/mL; in the assay with Escherichia coli [4], 1 µg/mL; with Escherichia coli [5] it was 8 µg/mL; in the assay with Klebsiella pneumoniae [6], 1 µg/mL.

Regarding `Nc1nc(/C(=N/OC2(C(=O)O)CC2)C(=O)N[C@@H]2C(=O)N3[C@@H]2[S@@+]([O-])C[C@@H]2CC(=O)O[C@@]23C(=O)O)cs1` (stereo in doubt), the MIC came out at 0.25 µg/mL in the assay with Enterobacter cloacae [1]; 0.5 µg/mL in the assay on Klebsiella pneumoniae [2]; 0.25 µg/mL in the assay with Enterobacter cloacae [3]; 0.25 µg/mL in the assay on Escherichia coli [4]; 0.5 µg/mL in the assay on Escherichia coli [5]; 0.5 µg/mL in the assay on Klebsiella pneumoniae [6].

As to `CC(C)(O/N=C(\C(=O)N[C@H]1CON(C2(C(=O)O)CCC(=O)O2)C1=O)c1csc(N)n1)C(=O)O` (stereo in doubt), the MIC in the assay on Escherichia coli [14] was 0.25 µg/mL (≈ 0.515 µM); against Escherichia coli [15] it was 0.063 µg/mL (≈ 0.13 µM); in the assay with Enterobacter cloacae [1], above 32 µg/mL; in the assay with Klebsiella pneumoniae [2], 1 µg/mL; against Escherichia coli [17] it was 0.063 µg/mL (≈ 0.13 µM); with Enterobacter cloacae [3], 1 µg/mL. Moreover, the minimum inhibitory concentration (MIC) in the assay with Escherichia coli [18] was determined as 0.063 µg/mL (≈ 0.13 µM); in the assay on Escherichia coli [4] it was 0.25 µg/mL; in the assay on Escherichia coli [5], 4 µg/mL; against Escherichia coli [19], 2 µg/mL (≈ 4.12 µM). Further, the Ratio was 4 in assay [16] and 32 in assay [20].

In the case of `C[C@H](O/N=C(\C(=O)N[C@@H]1C(=O)N2[C@@H]1SC[C@@H]1CC(=O)O[C@@]12C(=O)O)c1csc(N)n1)C(=O)O` (stereo in doubt), the MIC in the assay on Enterobacter cloacae [1] is 16 µg/mL; in the assay on Klebsiella pneumoniae [2], 0.5 µg/mL; with Enterobacter cloacae [3], 0.25 µg/mL; in the assay with Escherichia coli [4], 0.125 µg/mL; with Escherichia coli [5] it was 0.5 µg/mL; in the assay on Klebsiella pneumoniae [6] it was 0.25 µg/mL.

On to `Nc1nc(/C(=N/OCC(=O)O)C(=O)N[C@@H]2C(=O)N3[C@@H]2[S@+]([O-])C[C@@H]2CC(=O)O[C@@]23C(=O)O)cs1` (stereo in doubt), for which the MIC in the assay on Enterobacter cloacae [1] is above 32 µg/mL; in the assay with Klebsiella pneumoniae [2], 0.5 µg/mL; with Enterobacter cloacae [3] it was 2 µg/mL; in the assay on Escherichia coli [4], 0.25 µg/mL; in the assay with Escherichia coli [5], 1 µg/mL; in the assay with Klebsiella pneumoniae [6] it was 0.5 µg/mL.

As to `Nc1nc(/C(=N/OC2(C(=O)O)CC2)C(=O)N[C@@H]2C(=O)N3[C@@H]2SC[C@@H]2CC(=O)O[C@@]23C(=O)O)cs1` (stereo in doubt), the MIC in the assay with Enterobacter cloacae [1] was 8 µg/mL; with Klebsiella pneumoniae [2] it was 1 µg/mL; in the assay with Enterobacter cloacae [3], 0.25 µg/mL; in the assay with Escherichia coli [4], 0.125 µg/mL; in the assay on Escherichia coli [5], 0.25 µg/mL; in the assay on Klebsiella pneumoniae [6], 0.5 µg/mL.

As to `Nc1nc(/C(=N/OCC(=O)O)C(=O)N[C@@H]2C(=O)N3[C@@H]2SC[C@@H]2CC(=O)O[C@@]23C(=O)O)c(Cl)s1`, the MIC in the assay on Enterobacter cloacae [1] was determined as 8 µg/mL; with Klebsiella pneumoniae [2] it was 16 µg/mL; with Enterobacter cloacae [3], 2 µg/mL; in the assay with Escherichia coli [4], 1 µg/mL; with Escherichia coli [5], 4 µg/mL; in the assay on Klebsiella pneumoniae [6], 4 µg/mL.

On to `Nc1nc(/C(=N/OCC(=O)O)C(=O)N[C@@H]2C(=O)N3[C@@H]2S(=O)(=O)C[C@@H]2CC(=O)O[C@@]23C(=O)O)cs1` (stereo in doubt), for which the MIC was 1 µg/mL in the assay with Enterobacter cloacae [1]; 0.5 µg/mL in the assay on Klebsiella pneumoniae [2]; 0.25 µg/mL in the assay on Enterobacter cloacae [3]; 0.25 µg/mL in the assay with Escherichia coli [4]; 1 µg/mL in the assay on Escherichia coli [5]; 0.5 µg/mL with Klebsiella pneumoniae [6].
